Experimental data published in US9321790B2, “Pyrimidinone derivatives as antimalarial agents” (SANOFI, priority 2012, dated 2016).
Where two headings read alike, the source gives them in different places.

How the values were obtained:
[1] = system: Plasmodium falciparum (strain NF54); experiment: Antimalarial activity test: growth of Plasmodium falciparum in infected human erythrocytes, 3H-hypoxanthine incorporation; format: cell-based; details: strain NF54 sensitive to chloroquine, 72 h total incubation
Summary of the method: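 Chloroquine-sensitive NF54 parasites in human erythrocytes (1.25% hematocrit, 0.15% parasitemia) were grown in hypoxanthine-free RPMI 1640 with HEPES and Albumax II, with compound in twofold serial dilution, at 37 °C under 93% N2/4% CO2/3% O2. After 48 h, 3H-hypoxanthine (0.5 μCi) was added for 24 h. Scintillation counts versus drug-free control gave IC50.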

human PI3Kα = human PI3Kα (Homo sapiens (Human), UniProt P42336); experiment: Human PI3Kα activity test (luciferin/luciferase ATP consumption, KinaseGlo); format: biochemical
Sequence of human PI3Kα (P42336 whole entry): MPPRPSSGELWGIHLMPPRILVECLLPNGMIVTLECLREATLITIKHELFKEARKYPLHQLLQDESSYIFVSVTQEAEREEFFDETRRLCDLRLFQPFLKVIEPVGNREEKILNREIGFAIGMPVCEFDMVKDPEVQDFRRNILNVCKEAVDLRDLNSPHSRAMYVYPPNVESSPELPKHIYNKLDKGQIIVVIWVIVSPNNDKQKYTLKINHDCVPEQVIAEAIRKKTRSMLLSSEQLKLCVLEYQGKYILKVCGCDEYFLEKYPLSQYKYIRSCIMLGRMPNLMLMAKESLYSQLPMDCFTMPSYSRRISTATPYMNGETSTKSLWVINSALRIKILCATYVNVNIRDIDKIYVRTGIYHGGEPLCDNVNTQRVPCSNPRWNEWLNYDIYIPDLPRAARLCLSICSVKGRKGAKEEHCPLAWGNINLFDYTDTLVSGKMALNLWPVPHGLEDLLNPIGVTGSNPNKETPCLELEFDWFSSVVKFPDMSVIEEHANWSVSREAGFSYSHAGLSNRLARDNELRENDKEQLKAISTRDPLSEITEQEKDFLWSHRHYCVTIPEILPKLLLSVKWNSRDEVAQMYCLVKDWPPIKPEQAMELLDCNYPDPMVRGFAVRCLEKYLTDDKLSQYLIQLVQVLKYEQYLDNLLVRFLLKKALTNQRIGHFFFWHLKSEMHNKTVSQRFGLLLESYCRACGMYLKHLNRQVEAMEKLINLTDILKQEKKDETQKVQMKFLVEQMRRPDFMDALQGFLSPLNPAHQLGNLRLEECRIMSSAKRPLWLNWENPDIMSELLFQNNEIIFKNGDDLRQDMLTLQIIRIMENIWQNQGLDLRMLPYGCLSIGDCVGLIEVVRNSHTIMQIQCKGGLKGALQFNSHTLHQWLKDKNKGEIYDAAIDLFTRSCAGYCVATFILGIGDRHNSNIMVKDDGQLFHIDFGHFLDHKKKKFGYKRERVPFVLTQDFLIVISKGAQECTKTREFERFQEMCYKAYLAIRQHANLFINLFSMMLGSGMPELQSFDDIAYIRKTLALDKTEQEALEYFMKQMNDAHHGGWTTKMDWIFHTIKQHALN
Sequence of human PI3Kα (P27986 whole entry partner): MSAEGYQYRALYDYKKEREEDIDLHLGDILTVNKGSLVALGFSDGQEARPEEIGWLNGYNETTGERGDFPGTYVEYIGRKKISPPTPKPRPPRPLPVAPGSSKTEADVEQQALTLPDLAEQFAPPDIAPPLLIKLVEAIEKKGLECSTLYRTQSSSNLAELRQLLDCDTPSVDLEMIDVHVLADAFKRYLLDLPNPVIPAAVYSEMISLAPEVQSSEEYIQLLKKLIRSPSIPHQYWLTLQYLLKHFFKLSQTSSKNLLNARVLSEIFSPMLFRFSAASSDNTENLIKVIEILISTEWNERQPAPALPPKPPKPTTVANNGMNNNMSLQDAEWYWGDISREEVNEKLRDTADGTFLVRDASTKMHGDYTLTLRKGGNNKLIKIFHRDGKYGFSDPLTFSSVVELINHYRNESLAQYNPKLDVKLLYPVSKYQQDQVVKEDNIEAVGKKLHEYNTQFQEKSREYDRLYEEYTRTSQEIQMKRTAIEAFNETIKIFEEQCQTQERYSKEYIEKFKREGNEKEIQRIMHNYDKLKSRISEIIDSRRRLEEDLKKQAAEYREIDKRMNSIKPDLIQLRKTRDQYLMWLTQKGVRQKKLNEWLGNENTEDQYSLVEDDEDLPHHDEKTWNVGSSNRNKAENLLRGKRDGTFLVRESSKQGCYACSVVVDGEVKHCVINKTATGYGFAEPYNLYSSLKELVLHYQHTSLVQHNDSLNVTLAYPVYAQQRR
Protocol: The test uses a luciferin/luciferase system to measure the concentration of ATP and its consumption during the enzymatic reaction.
After 90 minutes, the reaction is quenched by adding 20 μl/well of KinaseGlo reagent (Promega V6713). After 10 minutes in the dark, the luminescence is read using a PHERAStar microplate reader (reading at 0.8 sec/well).

[2] = PI3Kα (p110α/p85α), 50 μM PIP2, 2 μM ATP, 90 minutes, read-out: IC50 Human PI3Kα
[3] = Plasmodium falciparum, Erythrocyte

SMILES | IC50 [1] | IC50 (human PI3Kα; [2]) | IC50 [1, 3] | IC50 (human PI3Kα)
Cc1n[nH]c(C)c1CCN1c2nc(N3C[C@@H]4C[C@H]3CO4)cc(=O)n2C[C@@]1(C)C(F)(F)F [Compound 28, 1-[2-(3,5-Dimethyl-1H-pyrazol-4-yl)ethyl]-2-methyl-7-(1S,4S)-2-oxa-5-azabicyclo[2.2.1]hept-5-yl-2-((S)-trifluoromethyl)-2,3-dihydro-1H-imidazo[1,2-a]pyrimidin-5-one] | 9 nM | 2260 nM |  | 
COc1ccc(CCN2c3nc(N4CC5CCC(C4)O5)cc(=O)n3C[C@@]2(C)C(F)(F)F)cc1 [Compound 76, (S)-1-[2-(4-Methoxyphenyl)ethyl]-2-methyl-7-(8-oxa-3-azabicyclo[3.2.1]oct-3-yl)-2-trifluoromethyl-2,3-dihydro-1H-imidazo[1,2-a]pyrimidin-5-one] |  | 950 nM | 93 nM | 
O=C(CN1c2nc(N3C[C@@H]4C[C@H]3CO4)cc(=O)n2CC[C@H]1C(F)(F)F)c1ccc2nsnc2c1 [Compound 61, (8S)-9-(2-Benzo[1,2,5]thiadiazol-5-yl-2-oxoethyl)-2-(1S,4S)-2-oxa-5-azabicyclo[2.2.1]hept-5-yl-8-trifluoromethyl-6,7,8,9-tetrahydropyrimido[1,2-a]pyrimidin-4-one] |  | > 10000 nM | 130 nM | 
CS(=O)(=O)c1ccc(C(=O)CN2c3nc(N4C[C@@H]5C[C@H]4CO5)cc(=O)n3CC[C@H]2C(F)(F)F)cc1 [Compound 108, (8S)-9-[2-(4-Methanesulfonylphenyl)-2-oxoethyl]-2-(1S,4S)-2-oxa-5-azabicyclo[2.2.1]hept-5-yl-8-trifluoromethyl-6,7,8,9-tetrahydropyrimido[1,2-a]pyrimidin-4-one] |  | > 10000 nM | 86 nM | 
O=c1cc(N2CC3CCC(C2)O3)nc2n1CC[C@@H](C(F)(F)F)N2CCc1ccc(O)cc1 [Compound 83, (8S)-9-[2-(4-Hydroxyphenyl)ethyl]-2-(8-oxa-3-azabicyclo[3.2.1]oct-3-yl)-8-trifluoromethyl-6,7,8,9-tetrahydropyrimido[1,2-a]pyrimidin-4-one] |  | 190 nM | 10 nM | 
O=C(CN1c2nc(N3C[C@@H]4C[C@H]3CO4)cc(=O)n2CC[C@H]1C(F)(F)F)c1ccc2snnc2c1 [Compound 47, (8S)-9-(2-benzo[1,2,3]thiadiazol-5-yl-2-oxoethyl)-2-(1S,4S)-2-oxa-5-azabicyclo[2.2.1]hept-5-yl-8-trifluoromethyl-6,7,8,9-tetrahydropyrimido[1,2-a]pyrimidin-4-one] |  | > 10000 nM | 13 nM | 
CCNC(=O)Nc1ccc(CCN2c3nc(N4C[C@@H]5C[C@H]4CO5)cc(=O)n3C[C@@]2(C)C(F)(F)F)cc1 [Compound 24, 1-ethyl-3-(4-{2-[(1S,4S)-2-methyl-7-2-oxa-5-azabicyclo[2.2.1]hept-5-yl-5-oxo-2-((S)-trifluoromethyl)-2,3-dihydro-5H-imidazo[1,2-a]pyrimidin-1-yl]ethyl}phenyl)urea] |  | 2440 nM | 8 nM | 
O=C(CN1c2nc(N3C[C@@H]4C[C@H]3CO4)cc(=O)n2CC[C@H]1C(F)(F)F)c1ccc2nccn2c1 [Compound 113, (8S)-9-(2-Imidazo[1,2-a]pyrid-6-yl-2-oxoethyl)-2-(1S,4S)-2-oxa-5-azabicyclo[2.2.1]hept-5-yl-8-trifluoromethyl-6,7,8,9-tetrahydropyrimido[1,2-a]pyrimidin-4-one] |  | > 10000 nM | 430 nM | 
O=C(CN1c2nc(N3C4CCC3COC4)cc(=O)n2CC[C@H]1C(F)(F)F)c1cccnc1 [Compound 85, (8S)-2-(3-Oxa-8-azabicyclo[3.2.1]oct-8-yl)-9-(2-oxo-2-pyrid-3-ylethyl)-8-trifluoromethyl-6,7,8,9-tetrahydropyrimido[1,2-a]pyrimidin-4-one] |  |  | 150 nM | > 10000 nM
O=c1cc(N2CC3CCC(C2)O3)nc2n1CC[C@@H](C(F)(F)F)N2Cc1ccn(C(F)F)n1 [Compound 86, (8S)-9-(1-Difluoromethyl-1H-pyrazol-3-ylmethyl)-2-(8-oxa-3-azabicyclo[3.2.1]oct-3-yl)-8-trifluoromethyl-6,7,8,9-tetrahydropyrimido[1,2-a]pyrimidin-4-one] |  | 7300 nM | 170 nM | 
O=C(CN1c2nc(N3C[C@@H]4C[C@H]3CO4)cc(=O)n2CC[C@H]1C(F)(F)F)c1ccc(OC(F)F)nc1 [Compound 114, (S)-9-[2-(6-difluoromethoxypyrid-3-yl)-2-oxoethyl]-2-(1S,4S)-2-oxa-5-azabicyclo[2.2.1]hept-5-yl-8-trifluoromethyl-6,7,8,9-tetrahydropyrimido[1,2-a]pyrimidin-4-one] |  | > 10000 nM | 245 nM | 
C[C@@]1(C(F)(F)F)Cn2c(nc(N3CC4CCC(C3)O4)cc2=O)N1CCCc1ccccc1 [Compound 77, (S)-2-Methyl-7-(8-oxa-3-azabicyclo[3.2.1]oct-3-yl)-1-(3-phenylpropyl)-2-trifluoromethyl-2,3-dihydro-1H-imidazo[1,2-a]pyrimidin-5-one] |  | 820 nM | 160 nM | 
C[C@@]1(C(F)(F)F)Cn2c(nc(N3CC4CCC(C3)O4)cc2=O)N1C[C@@H](O)c1ccccc1 [Compound 79, (2S)-1-((S)-2-Hydroxy-2-phenylethyl)-2-methyl-7-(8-oxa-3-azabicyclo[3.2.1]oct-3-yl)-2-trifluoromethyl-2,3-dihydro-1H-imidazo[1,2-a]pyrimidin-5-one] |  | 1600 nM | 640 nM | 
C[C@@]1(C(F)(F)F)Cn2c(nc(N3C[C@@H]4C[C@H]3CO4)cc2=O)N1CCc1ccc(N)cc1 [Compound 32, 1-[2-(4-Aminophenyl)ethyl]-2-methyl-7-(1S,4S)-2-oxa-5-azabicyclo[2.2.1]hept-5-yl-2-((S)-trifluoromethyl)-2,3-dihydro-1H-imidazo[1,2-a]pyrimidin-5-one] | 4 nM | 3700 nM |  | 
O=C(CN1c2nc(N3C[C@@H]4C[C@H]3CO4)cc(=O)n2CC[C@H]1C(F)(F)F)N1C2CCC1COC2 [Compound 99, (8S)-2-(1S,4S)-2-oxa-5-azabicyclo[2.2.1]hept-5-yl-9-[2-(3-oxa-8-azabicyclo[3.2.1]oct-8-yl)-2-oxoethyl]-8-trifluoromethyl-6,7,8,9-tetrahydropyrimido[1,2-a]pyrimidin-4-one] |  |  | 170 nM | > 10000 nM
O=C(CN1c2nc(N3C[C@@H]4C[C@H]3CO4)cc(=O)n2CC[C@H]1C(F)(F)F)c1ccc(OCCF)nc1 [Compound 63, (S)-9-{2-[6-(2-fluoroethoxy)pyrid-3-yl]-2-oxoethyl}-2-(1S,4S)-2-oxa-5-azabicyclo[2.2.1]hept-5-yl-8-trifluoromethyl-6,7,8,9-tetrahydropyrimido[1,2-a]pyrimidin-4-one] |  | > 7200 nM | 384 nM | 

Now from value to molecule, other results behind:

IC50 [1] | IC50 (human PI3Kα; [2]) | IC50 [1, 3] | SMILES | IC50 (human PI3Kα)
 | > 10000 nM | > 210 nM | CCOc1ccc(C(=O)CN2c3nc(N4C[C@@H]5C[C@H]4CO5)cc(=O)n3CC[C@H]2C(F)(F)F)cn1 [Compound 35, (8S)-9-[2-(6-Ethoxypyrid-3-yl)-2-oxoethyl]-2-(1S,4S)-2-oxa-5-azabicyclo[2.2.1]hept-5-yl-8-trifluoromethyl-6,7,8,9-tetrahydropyrimido[1,2-a]pyrimidin-4-one] | 
 | 2740 nM | 6 nM | CCC(O)(CC)CCN1c2nc(N3C[C@@H]4C[C@H]3CO4)cc(=O)n2CC[C@H]1C(F)(F)F [Compound 49, (8S)-9-(3-ethyl-3-hydroxypentyl)-2-(1S,4S)-2-oxa-5-azabicyclo[2.2.1]hept-5-yl-8-trifluoromethyl-6,7,8,9-tetrahydropyrimido[1,2-a]pyrimidin-4-one] | 
 | 7930 nM | 46 nM | CC(C)(C)C(=O)CN1c2nc(N3C[C@@H]4C[C@H]3CO4)cc(=O)n2CC[C@H]1C(F)(F)F [Compound 29, (8S)-9-(3,3-dimethyl-2-oxobutyl)-2-(1S,4S)-2-oxa-5-azabicyclo[2.2.1]hept-5-yl-8-trifluoromethyl-6,7,8,9-tetrahydropyrimido[1,2-a]pyrimidin-4-one] | 
 | 2400 nM | 2 nM | O=CN1CCC(CCN2c3nc(N4C[C@@H]5C[C@H]4CO5)cc(=O)n3CC[C@H]2C(F)(F)F)CC1 [Compound 90, 4-[2-((2S)-8-(1S,4S)-2-oxa-5-azabicyclo[2.2.1]hept-5-yl-6-oxo-2-trifluoromethyl-3,4-dihydro-2H,6H-pyrimido[1,2-a]pyrimidin-1-yl)ethyl]piperidine-1-carbaldehyde] | 
 | 930 nM | 12 nM | O=c1cc(N2C[C@@H]3C[C@H]2CO3)nc2n1CC[C@@H](C(F)(F)F)N2CC1(O)CC1 [Compound 104, (8S)-9-(1-hydroxycyclopropylmethyl)-2-(1S,4S)-2-oxa-5-azabicyclo[2.2.1]hept-5-yl-8-trifluoromethyl-6,7,8,9-tetrahydropyrimido[1,2-a]pyrimidin-4-one] | 
 | > 10000 nM | 330 nM | O=C(CN1c2nc(N3C[C@@H]4C[C@H]3CO4)cc(=O)n2CC[C@H]1C(F)(F)F)N1CCOCC1 [Compound 110, (8S)-9-(2-Morpholin-4-yl-2-oxoethyl)-2-(1S,4S)-2-oxa-5-azabicyclo[2.2.1]hept-5-yl-8-trifluoromethyl-6,7,8,9-tetrahydropyrimido[1,2-a]pyrimidin-4-one] | 
 | > 10000 nM | 70 nM | O=C(CN1c2nc(N3C[C@@H]4C[C@H]3CO4)cc(=O)n2CC[C@H]1C(F)(F)F)c1ccc(NCCO)nc1 [Compound 14, (8S)-9-{2-[6-(2-hydroxyethylamino)pyrid-3-yl]-2-oxoethyl}-2-(1S,4S)-2-oxa-5-azabicyclo[2.2.1]hept-5-yl-8-trifluoromethyl-6,7,8,9-tetrahydropyrimido[1,2-a]pyrimidin-4-one] | 
